# Results published in US20030017976A1, “Therapeutic properties of liposome-encapsulated immunomodulators” (priority 1998, published 2003).
# How the values were obtained:
# [1] = test system: peritoneal exudate macrophages (PEM); assay: Nitrite (NO) production by mouse peritoneal exudate macrophages; format: cell-based; details: available to 1×10^5 PEM
# Method: Peritoneal exudate macrophages (PEM) were collected by peritoneal lavage from mice given an intraperitoneal injection of 2.0 ml of thioglycollate broth (Baltimore Biological Laboratory, Cockeysville, Md.) 4 days before harvest (Dong Z, O'Brian C A, et al. J Leukoc Biol (1993) 53:53-60; Xie K, Huang S, et al. Cancer Res (1995) 55:3123-31). The PEM were washed in Ca^+2- an Mg^2+-free HBSS and resuspended in serum-free medium: 1×10^5 cells were plated into each 38-mm^2 well of 96-2311 culture plates (Falcon Plastics, Oxnard, Calif.). After a 90-min incubation, the nonadherent cells were removed by washing with medium. More than 98% of the adherent cell populations were macrophages according to morphology and phagocytic criteria (Saiki I, et al. J Immunol (1985) 135:684-8). […] After treatment, the cultures were washed and macrophage-mediated cytotoxicity against different tumor targets was determined. […]
# Nitrite accumulation in the culture supernatant was measured in a colorimetric assay as described previously (Ding A E, et al. J Immunol (1988) 141:2407-12). […] The mixtures were incubated 10 min with shaking, and A540 was measured with the use of a microplate reader (Model 3550; Bio-Rad Corp., San Francisco, Calif.). The concentration of nitrite was determined by comparing it with a standard solution of sodium nitrite in medium.
# human monocytes = assay: Northern blot of cytokine mRNA in monocytes; format: cell-based; details: LPS 100 ng/ml, MLV-JBT3002 500 nmol/ml, JBT3002 1 ng/ml; 1-3 h
# Method: Total RNA was extracted using Tri reagent™ kit according to the manufacturer's instructions (Molecular Research Center, Inc., Cincinnati, Ohio). […] Cytokine and GAPDH and mRNA were detected using cDNA probes of Human TNF-α, IL-1β, IL-6 and rat glyceraldehyde-3-phosphate dehydrogenase (GAPDH) labeled by nick translation with α-^32P-CTP. Hybridizations were performed as described (Dong, Z. et al. J Natl. Cancer Inst. (1994) 86:913).
# CT-26P colon carcinoma = assay: Combination therapy of CT-26P colon carcinoma with CPT-11 and oral liposomal JBT3002; format: in vivo, mouse; details: day 17
# Method: This course of therapy was repeated weekly for about three weeks prior to tissue harvest. Experimental Groups/Procedures: 40 Balb/c mice were divided into 8 groups of 5 mice each. On day 0, the spleens of the mice were injected with 15,000 cultured CT-26P cells. The groups were then treated as follows: The spleens of Balb/c mice were injected with 15,000 cultured CT-26P colon carcinoma cells on day 0. […] Treated mice received two weeks of chemotherapy and three weeks of the macrophage activator. Tissues were harvested on day 17. The spleens and livers were weighed, the extent of metastasis was graded (denoted below) and histology prepared.
# tumor cells = assay: Macrophage-mediated tumor cytotoxicity, target cells not named; format: cell-based; details: available in MLV to 1×10^5 cells
# Method: Cytotoxicity was assayed by measuring release of radioactivity from target cell DNA as described previously (Dong Z, et al. J Exp Med (1993) 177:1071-7). Briefly, tumor target cells in their exponential growth phase were incubated in medium containing 0.25 μCi/ml of [^3H]TdR (sp. Act. 2 Ci/mmol) (ICN Biomedicals, Inc., Irvine, Calif.) for 24 h. The cells were washed three times with HBSS to remove unbound radioactivity and then harvested by trypsinization (0.25% trypsin in 0.02% EDTA), washed, and resuspended in medium. Cells were plated (at 1×10^4/well) into wells containing control or test macrophages to achieve an E/T cell ratio of 10:1. At this density, macrophages incubated in medium (control) were not cytotoxic to neoplastic cells (Weinstein SL, et al. Proc Natl Acad Sci USA (1991) 88:4148-52; Dong Z, et al. JLeukoc Biol (1993) 53:53-60). […] The lysate was harvested with harvester 96 (Tomtec, Orange, Conn.) and counted for residual radioactivity in a liquid scintillation counter. Macrophage-mediated cytotoxicity was calculated as follows: […]
# Efficient activation of macrophages by LPS requires priming by IFN-γ (Saiki I, et al. J Immunol (1985) 135:684-8). […] Tumor cytotoxicity was measured 72 h after the addition of radiolabeled tumor cells to the activated macrophages. […]
# IL-15 = assay: RT-PCR of IL-15 in PEM and IEC6 cells; format: cell-based
# From the text: To determine whether macrophages or epithelial cells respond to JBT 3002 by upregulating IL-1 5, the RT-PCR technique was used and the results are shown in FIG. 23.
substance,measurement,setting,value
N-hexadecanol-S-[2(R)-3-diodecanoyloxypropyl]-L-cysteinyl-L-alanyl-D-isoglutaminyl-glycyl-taurine sodium salt [JBT3002],minimal concentration of JBT3002 required to generate significant levels of NO (20 μM),[1],0.12 to 0.15 ng
same,"mRNA for TNF-α, IL-1β, and IL-6",human monocytes,"High levels of mRNA for TNF-α, IL-1β, and IL-6"
same,"Spleen Weights, mean",CT-26P colon carcinoma; oral JBT3002 1 μg/dose in PC liposomes 3x/week alone,1.137 ± 0.628 grams
same,"Liver Weights, mean",CT-26P colon carcinoma; oral liposomal JBT3002 1 μg/dose 3x/week alone,1.842 ± 0.498 grams
same,minimal concentration of JBT3002 for significant activation of tumoricidal properties in PEM,tumor cells,1.5 ng
same,IL-15 expression in response to JBT 3002 (RT-PCR),IL-15,"Peritoneal exudate macrophages (PEM), but not intestinal cells (IEC6), upregulate IL-15 expression"
